Experimental data from patent publication US9365851B2, “Spalt-like transcription factor 4 (SALL4) and uses thereof” (National University of Singapore, priority 2011, dated 2016).
Entries after “also recorded” stand apart in the source; their conditions may differ. Read-outs that look alike come from different tables or passages of the source.

Assays:
HuH-7 and SNU-398 cells = test: In vivo tumorigenicity of shRNA-transduced HCC cells in NOD/SCID mice
Protocol: 4- to 8-week-old NOD/SIC mice were used. Animal work was done at the Childrens Hospital Boston (CHB) with approval from IACUC. 10×10^6 SNU-398 or 6×10^6 HuH-7 cells infected with viruses expressing scrambled shRNA or E5 shRNA specific for SALL4 (total 300 μL of cell suspension and matrigel in 1:1 ratio) were injected subcutaneously (s.c.) into NOD/SCID mice on the right flank. After injection, mice were examined and tumor volumes were measured at various time points. Tumor volume=π/6×larger diameter×(smaller diameter)^2. Tumor samples were processed for routine histology examination.
A decrease in tumorigenicity in SALL4-knockdown HCC cells was anticipated and an in vivo transplantation assay was carried out to confirm this hypothesis. HuH-7, another HCC cell line with considerably high endogenous SALL4 expression, and SNU-398 cells were transduced with lentivirus expressing either E5 shRNA or control scrambled shRNA and transplanted subcutaneously into right flank of NOD/SCID mice.
To examine if SALL4 has a role in maintaining tumorigenicity of HCC cells, in vivo xenotransplantation assays were carried out. HuH-7 and SNU-398 cells were transduced with lentviruses expressing either shSALL4 1 or Scr shRNA 1 and transplanted subcutaneously into the flanks of NOD/SCID mice.

AML = test: Cellular uptake of FITC-labeled peptide; type: cell-based, human
Protocol: (§1) Cells were grown typically in 6 well plates (35 mm dish) to 50-70% confluence. Usually the transfect ion efficiency is somehow cell type specific. 2 mM peptide was diluted 4 times in PBS (2 ul+6 ul) (For FITC peptidedo not dilute the 2 mM stock). For each transfection reaction tube with 100 ul PBS+1 ul diluted peptide was set up. Chariot reagent was diluted 1:10 in ddH2O and for each transfection a 94 ul H2O tube+6 ul diluted Chariot was prepared (No master mix for more than 4 transfections). The 2 tubes were carefully mixed by pipetting up and down and incubated 30 min. at room temperature. Medium was aspirated from the dish (well) and cells were overlay with the mix. 400 ul serum free medium was added and cells were incubated further for 1 h 37 C (cell incubator). 500 ul complete medium (with 10% serum) was finally added. If cells are not very sensitive to serum starvation (cancer cell lines) 5% serum could be used.
(§2) Fluorescent and Confocal microscopy was performed on cells treated with FITC labeled peptides with or without of transfection reagent depending on the cell type. Cells were mounted on cover slips using mounting media with DAPI (Invitrogen) and in some cases cytoskeleton dye (Invitrogen).
(§3) In order to evaluate their cellular uptake and localization, the N terminus of these peptides was labeled with fluorescein isothiocyanate (FITC). Despite the net positive charge of these peptides, their uptake by the cells is cell-type specific. Some cell lines such as HL-60 (an AML cell line) allowed the peptide to enter the cells without any modification or carrier, and some cell lines were not penetrable at all. In order to achieve a similar level of peptide delivery in most cell types, a Chariot Transfection Reagent (Active Motif) was used as a peptide carrier, as directed from the manufacturer. All cell types used in the study described herein were subjected to individual evaluation of the percentage of the cells in which the peptide was delivered as well as the duration of time during which they sustained the labeled peptide in the cells. After Chariot treatment, confocal microscopy studies confirmed uptake of these peptides throughout the cell, including nuclei (as evidenced by DAPI overlay, FIG. 1B).

HL60 = test: Cellular uptake of FITC-labeled peptide; type: cell-based, human
Protocol: as §1, §2, §3

HuH-7 = test: Cellular uptake of FITC-labeled peptide; type: cell-based, human
Protocol: as §1, §2, §3

SNU387 = test: Cellular uptake of FITC-labeled peptide; type: cell-based, human
Protocol: as §1, §2, §3

PTEN/AKT pathway = PTEN/AKT pathway expression in SNU-387 cells after treatment (Western blot); type: cell-based, human; conditions: SNU-387, Western blot
Excerpt: The induction of Pten expression was not affected when wt peptide was administrated together with a Pten inhibitor. AKT, a molecule with levels of phosphorylation controlled by the expression of Pten was affected by the wt peptide addition accordingly. […] The effect of wt peptide on pAKT was abrogated by the Pten inhibitor. […] In contrast, the protein expression level of endogenous Pten was very high in the none-SALL4 expressing SNU387 cells.
To confirm the involvement of PTEN tumor suppressor in SALL4 peptide-induced reduction of number of viable HCC cells, PTEN expression was analyzed by western blot upon drug treatment. […] Whether the increase in PTEN expression upon SALL4 peptide treatment has an effect in PI3K signalling by dephosphorylating AKT was examined.
To confirm the involvement of the PTEN tumor suppressor in the SALL4 peptide-induced reduction of HCC cell viability, PTEN expression was analyzed by western blot upon drug treatment. […] If the increase in PTEN expression has an effect in PI3K signaling was next examined. PTEN functions as a phosphatase to dephosphorylate AKT.

OV90 = test: Peptide treatment of ovarian cancer cells; type: cell-based
Protocol: Mut-peptide: mutant peptide; WT-peptide: wild-type peptide.
To understand the mechanism(s) of SALL4 function(s), SALL4-associated proteins were identified by tandem mass spectrometry. Components of the Mi-2/nucleosome remodeling and deacetylase (NuRD) complex were found in SALL4-immunocomplexes along with HDAC activity in ESCs with endogenous SALL4 expression and 293T cells overexpressing SALL4. The SALL4-mediated transcriptional regulation was tested on one potential target gene: Phosphatase and Tensin Homolog (Pten). Pten was confirmed as SALL4 downstream targets by chromatin-immunoprecipitation (ChIP), and its expression level, when tested by quantitative reverse transcription polymerase chain reaction (qRT-PCR), was decreased in 293T cells overexpressing SALL4. […] A small peptide that can block the oncogenic role of SALL4 in repressing Pten has been generated.

CTATTTAGCCAAAGGCAAA (short hairpin RNA, chemistry and delivery not given here, further chemistry not given here) [E5 shRNA]
mice with tumor formation (HuH-7 and SNU-398 cells; HuH-7, subcutaneous, n=3): one out of the three | ability of cells to propagate tumors (HuH-7 and SNU-398 cells; HuH-7 and SNU-398): greatly reduced the ability of these cells to propagate tumors | survival of mice (HuH-7 and SNU-398 cells; HuH-7 and SNU-398, Kaplan-Meier): significant survival advantage

H-MSRRKQAKPQHI-OH [wt peptide, MSRRKQAKPQHI]
peptide uptake (cells with peptide) (AML; no carrier): 0% | peptide uptake (cells with peptide) (AML; with Chariot): 50% | peptide uptake (cells with peptide) (HL60; HL60, no carrier): ~50% | peptide uptake (cells with peptide) (HL60; HL60, with Chariot): 70% | peptide uptake (cells with peptide) (HuH-7; HuH-7, no carrier): 0% | peptide uptake (cells with peptide) (HuH-7; HuH-7, with Chariot): 60% | peptide uptake (cells with peptide) (SNU387; SNU387, no carrier): 0% | peptide uptake (cells with peptide) (SNU387; SNU387, with Chariot): 40% | PTEN protein expression (PTEN/AKT pathway): did not seem to change the expression of Pten significantly | phosphorylated AKT (pAKT) level (PTEN/AKT pathway): little or no effect | PTEN protein expression (PTEN/AKT pathway; listed as SALL4 peptide): slight increase in PTEN expression; also recorded: negligible effect on PTEN expression | living cells / cell death (OV90): decreased living cells | living cells / cell death (OV90; listed as small peptide): resulted in cell death
